Source: ChEMBL document CHEMBL1201862, “PubChem BioAssay data set” (2004)
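Protocol summary: plate cells (96-well), add compound at 5 concentrations, incubate 48 h, interpolate endpoints linearly. GI50 is the concentration that inhibits growth by half.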 Calls of active or inactive are those of the source. No stated cut-off is given here; in the data, active = GI50 up to about 1.1 µM and inactive = higher.

Tests used:
Assay in all cases: DTP human tumour cell line panel, 48 h
MOLT-4 = tested on: MOLT-4
OVCAR-4 = tested on: OVCAR-4
CAKI-1 = tested on: CAKI-1
UO-31 = tested on: UO-31
786-0 = tested on: 786-0
COLO 205 = tested on: COLO 205
RPMI-8226 = tested on: RPMI-8226
LOX IMVI = tested on: LOX IMVI
U-251 = tested on: U-251
HL-60 = tested on: HL-60
SN12C = tested on: SN12C
NCI-H226 = tested on: NCI-H226
SK-MEL-5 = tested on: SK-MEL-5
M14 = tested on: M14
UACC-62 = tested on: UACC-62

Measured: GI50

Cc1nc2c(nc1C)C(=O)c1cc(O)ccc1C2=O
inactive: MOLT-4 > 66.7 µM | OVCAR-4 > 85.5 µM | CAKI-1 > 100 µM | UO-31 > 100 µM | 786-0 > 95.5 µM | COLO 205 23.1 µM | RPMI-8226 > 51.1 µM | LOX IMVI 53.1 µM | U-251 > 100 µM | HL-60 31 µM | SN12C > 73.5 µM | NCI-H226 > 100 µM | SK-MEL-5 15.6 µM | M14 > 77.6 µM | UACC-62 22.3 µM

N#Cc1cccc(C2C(=O)c3ccc(C(=O)c4ccc5c(c4)C(=O)N(c4ccc(Oc6ccc(N7C(=O)c8ccc(C(=O)c9ccc%10c(c9)C(=O)N(c9cccc(C#N)c9)C%10=O)cc8C7=O)cc6)cc4)C5=O)cc3C2=O)c1 (stereo not drawn)
inactive: MOLT-4 > 100 µM | OVCAR-4 > 100 µM | UO-31 > 100 µM | 786-0 > 100 µM | COLO 205 > 100 µM | RPMI-8226 > 100 µM | U-251 > 100 µM | HL-60 > 100 µM | SN12C > 100 µM | SK-MEL-5 > 100 µM | M14 > 100 µM | UACC-62 > 100 µM

COC(=O)C1(C(=O)OC)CC(=O)c2cc3c(cc2-c2c(cc(OC)c(OC)c2OC)C1)OCO3
inactive: MOLT-4 83.6 µM | CAKI-1 > 211 µM | 786-0 > 211 µM | COLO 205 183 µM | LOX IMVI > 211 µM | U-251 > 211 µM | HL-60 67.1 µM | SN12C > 211 µM | NCI-H226 95.5 µM | SK-MEL-5 123 µM | UACC-62 109 µM

C[Si](C)(C)/C=C/CCC(C=O)(CCCl)c1ccccc1 (stereo not drawn)
inactive: MOLT-4 16.3 µM | UO-31 44.2 µM | 786-0 16.3 µM | COLO 205 29.2 µM | LOX IMVI 19.1 µM | U-251 15.7 µM | HL-60 6.98 µM | SN12C 31.4 µM | SK-MEL-5 17.8 µM | M14 28.3 µM | UACC-62 21.7 µM

CC1=Nc2ccccc2C1C(Cc1ccccc1N)c1c(C)[nH]c2ccccc12 (stereo not drawn)
inactive: MOLT-4 20.9 µM | UO-31 14.7 µM | 786-0 15.1 µM | COLO 205 16.6 µM | RPMI-8226 18.5 µM | LOX IMVI 15 µM | U-251 16.8 µM | HL-60 14 µM | SN12C 18.7 µM | NCI-H226 15 µM | SK-MEL-5 14.6 µM | M14 15 µM | UACC-62 13.5 µM

Cc1cc(C)c(S(=O)(=O)ONC(=O)OC(C)(C)C)c(C)c1
inactive: MOLT-4 > 100 µM | OVCAR-4 > 100 µM | CAKI-1 > 100 µM | UO-31 > 100 µM | 786-0 > 100 µM | COLO 205 > 100 µM | RPMI-8226 > 100 µM | LOX IMVI > 100 µM | U-251 > 100 µM | HL-60 > 100 µM | SN12C > 100 µM | SK-MEL-5 > 100 µM | M14 > 100 µM | UACC-62 > 100 µM

COC1=CC(=O)[C@]2(C)[C@H](C1=O)C(C)[C@H]2c1ccc(OC)cc1 (stereo partly drawn)
inactive: MOLT-4 > 100 µM | OVCAR-4 > 100 µM | CAKI-1 > 100 µM | UO-31 82 µM | 786-0 > 100 µM | COLO 205 > 100 µM | RPMI-8226 > 100 µM | LOX IMVI > 100 µM | U-251 > 100 µM | HL-60 > 100 µM | NCI-H226 > 100 µM | SK-MEL-5 > 100 µM | M14 > 100 µM | UACC-62 > 100 µM

CCCC(O)c1ccc2[nH]c3c(C)cc([N+](=O)[O-])c(C)c3c2c1 (stereo not drawn)
inactive: MOLT-4 > 100 µM | OVCAR-4 > 100 µM | CAKI-1 > 100 µM | UO-31 > 100 µM | 786-0 27.4 µM | COLO 205 93.1 µM | RPMI-8226 62.1 µM | LOX IMVI > 100 µM | HL-60 > 100 µM | SN12C > 100 µM | NCI-H226 > 100 µM | SK-MEL-5 > 100 µM | M14 > 100 µM

O=C(Nc1ccc(F)cc1)C(=O)C(C1OC(=O)c2ccccc21)[N+](=O)[O-] (stereo not drawn)
inactive: MOLT-4 > 100 µM | OVCAR-4 > 100 µM | CAKI-1 > 100 µM | UO-31 > 100 µM | 786-0 > 100 µM | COLO 205 > 100 µM | RPMI-8226 > 100 µM | LOX IMVI > 100 µM | U-251 > 100 µM | HL-60 > 100 µM | NCI-H226 > 100 µM | SK-MEL-5 > 100 µM | M14 > 100 µM | UACC-62 > 100 µM

Cc1ccc(NC(=O)/C(=N\NC(N)=S)C(C#N)c2ccccc2C)cc1C (stereo not drawn)
inactive: MOLT-4 > 100 µM | OVCAR-4 > 100 µM | CAKI-1 > 100 µM | UO-31 > 100 µM | 786-0 > 100 µM | COLO 205 > 100 µM | RPMI-8226 > 100 µM | U-251 > 100 µM | HL-60 > 100 µM | SN12C > 100 µM | NCI-H226 > 100 µM | SK-MEL-5 > 100 µM | M14 > 100 µM | UACC-62 > 100 µM

O=C(Oc1ccc2c(-c3ccccc3)c(C(=O)Nc3ccc(Cl)cc3)c(=O)oc2c1)c1ccccc1
inactive: MOLT-4 74.1 µM | UO-31 > 100 µM | 786-0 > 100 µM | COLO 205 > 100 µM | RPMI-8226 > 100 µM | LOX IMVI > 100 µM | U-251 > 100 µM | HL-60 > 100 µM | SN12C > 100 µM | NCI-H226 > 100 µM | SK-MEL-5 > 100 µM | M14 > 100 µM | UACC-62 > 100 µM

CC1CC(=O)c2c(ccc3c2C(=O)c2cccc(O)c2C3=O)C1 (stereo not drawn)
inactive: MOLT-4 2.13 µM | OVCAR-4 12.4 µM | UO-31 11.5 µM | 786-0 7 µM | COLO 205 5.75 µM | RPMI-8226 3.34 µM | LOX IMVI 4.47 µM | U-251 11.4 µM | HL-60 2.77 µM | NCI-H226 14.4 µM | SK-MEL-5 2.31 µM | M14 1.97 µM | UACC-62 8.53 µM

Cc1c(C#N)c(=O)[nH]c(=O)n1CCN1CCN(C(=O)NCCCCCCNC(=O)N2CCN(CCn3c(C)c(C#N)c(=O)[nH]c3=O)CC2)CC1
inactive: MOLT-4 > 100 µM | OVCAR-4 > 100 µM | CAKI-1 > 100 µM | 786-0 > 100 µM | COLO 205 > 100 µM | RPMI-8226 > 100 µM | LOX IMVI > 100 µM | U-251 > 100 µM | HL-60 > 100 µM | SN12C > 100 µM | SK-MEL-5 > 100 µM | M14 > 100 µM | UACC-62 > 100 µM

NC(=O)C(=O)C1CCC2=C(Sc3ccccc3N2)C1=O (stereo not drawn)
inactive: MOLT-4 > 100 µM | OVCAR-4 > 100 µM | CAKI-1 > 100 µM | UO-31 > 100 µM | 786-0 > 100 µM | COLO 205 > 100 µM | RPMI-8226 > 100 µM | LOX IMVI > 100 µM | U-251 > 100 µM | HL-60 > 100 µM | SK-MEL-5 > 100 µM | M14 > 100 µM | UACC-62 > 100 µM
